Assay results from ChEMBL document CHEMBL1201862, “PubChem BioAssay data set” (2004).
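1) Cells in 96-well plates. 2) Compound, 48 h, 5 concentrations. 3) Linear interpolation between surrounding doses. 4) Unreached endpoint = highest concentration. GI50 marks 50% less growth.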 The source made the active and inactive calls. No stated cut-off is given here; in the data, active = GI50 up to about 1.1 µM and inactive = higher.

Tests used:
Experiment in all cases: growth of human tumour cells (NCI), 48 h
A498 = tested on: A498
CAKI-1 = tested on: CAKI-1
CCRF-CEM = tested on: CCRF-CEM
DMS-114 = tested on: DMS-114
DMS-273 = tested on: DMS-273
HCT-116 = tested on: HCT-116
HCT-15 = tested on: HCT-15
HL-60 = tested on: HL-60
HOP-62 = tested on: HOP-62
K562 = tested on: K562
MOLT-4 = tested on: MOLT-4
NCI-H23 = tested on: NCI-H23
OVCAR-3 = tested on: OVCAR-3
OVCAR-5 = tested on: OVCAR-5
SNB-19 = tested on: SNB-19
SW-620 = tested on: SW-620
TK-10 = tested on: TK-10
UACC-62 = tested on: UACC-62
Hs-578T = tested on: Hs-578T
MDA-N = tested on: MDA-N

Structure (SMILES)	GI50 (A498)	GI50 (CAKI-1)	GI50 (CCRF-CEM)	GI50 (DMS-114)	GI50 (DMS-273)	GI50 (HCT-116)	GI50 (HCT-15) [µM]	GI50 (HL-60)	GI50 (HOP-62)	GI50 (K562)	GI50 (MOLT-4)	GI50 (NCI-H23)	GI50 (OVCAR-3)	GI50 (OVCAR-5)	GI50 (SNB-19)	GI50 (SW-620)	GI50 (TK-10)	GI50 (UACC-62)	GI50 (Hs-578T)	GI50 (MDA-N)
COc1c(C)c2c(c3c1c(=O)c1ccccc1n3C)C=CC(C)(C)O2	32.7 µM (inactive)	26.2 µM (inactive)	21.4 µM (inactive)	14.5 µM (inactive)	14.8 µM (inactive)	18.5 µM (inactive)	18.2	9.73 µM (inactive)	27.2 µM (inactive)	13.4 µM (inactive)	19.5 µM (inactive)	27.1 µM (inactive)	19.6 µM (inactive)	29.2 µM (inactive)	41.3 µM (inactive)	38 µM (inactive)	48.3 µM (inactive)	14.4 µM (inactive)		
Cc1ccc2oc(=O)c3c(O)c4cccc(OC5OC(C)C6O[C@@H](c7ccccc7)OC6C5OC5OC(C)C(O)C(O)C5O)c4c4oc(=O)c1c2c34 (stereo partly specified)	0.0274 µM (active)	0.138 µM (active)	0.0182 µM (active)	0.262 µM (active)	0.0278 µM (active)	< 0.0171 µM (active)	0.553	0.0536 µM (active)	0.0452 µM (active)	0.0404 µM (active)		0.0492 µM (active)	0.0857 µM (active)	0.162 µM (active)	0.334 µM (active)	0.0486 µM (active)	0.392 µM (active)	0.0449 µM (active)	0.119 µM (active)	0.121 µM (active)
COc1ccc(C(=O)O)c(Cc2ccc3ccccc3c2)c1	> 100 µM (inactive)	> 100 µM (inactive)	> 100 µM (inactive)	> 100 µM (inactive)	> 100 µM (inactive)	> 100 µM (inactive)		> 100 µM (inactive)	> 100 µM (inactive)	> 100 µM (inactive)	> 100 µM (inactive)	> 100 µM (inactive)	> 100 µM (inactive)	> 100 µM (inactive)	> 100 µM (inactive)	> 100 µM (inactive)	> 100 µM (inactive)	> 100 µM (inactive)		
Cc1cccc(NC(=O)c2cccc([N+](=O)[O-])c2O)c1C	28.5 µM (inactive)	27.4 µM (inactive)	14.9 µM (inactive)	32.4 µM (inactive)	22.2 µM (inactive)	28.2 µM (inactive)	31.4	13.4 µM (inactive)	17.8 µM (inactive)	12.1 µM (inactive)	19.4 µM (inactive)	17.5 µM (inactive)	18.1 µM (inactive)	30.6 µM (inactive)	18.7 µM (inactive)	37.9 µM (inactive)	53.6 µM (inactive)	28 µM (inactive)	43.6 µM (inactive)	
CN(C)CC1CC/C(=C\c2ccc3c(c2)OCO3)C1=O (stereo unspecified)	19 µM (inactive)	8.89 µM (inactive)	2.79 µM (inactive)	18.4 µM (inactive)	16.8 µM (inactive)	6.75 µM (inactive)	6.67	2.56 µM (inactive)	> 51.6 µM (inactive)	2.83 µM (inactive)	2.98 µM (inactive)	9.62 µM (inactive)	7.74 µM (inactive)	18 µM (inactive)	16.2 µM (inactive)	6.4 µM (inactive)	11.1 µM (inactive)	16.7 µM (inactive)	4.38 µM (inactive)	4.42 µM (inactive)
N#CCCN(CCC#N)c1ccc(C(Sc2ccccc2)C(NC(=O)c2cc([N+](=O)[O-])ccc2Cl)C(=O)Sc2ccccc2)cc1 (stereo unspecified)	2.15 µM (inactive)	1.45 µM (inactive)	0.172 µM (active)	2.37 µM (inactive)	1.56 µM (inactive)	2.17 µM (inactive)	3.45	1.4 µM (inactive)	3.24 µM (inactive)	2.39 µM (inactive)	0.385 µM (active)	5.06 µM (inactive)	2.56 µM (inactive)	4.38 µM (inactive)	3.54 µM (inactive)	2.19 µM (inactive)	7.28 µM (inactive)	1.68 µM (inactive)		
